Measurements from patent US11021457B2, “Class of isoindolone-imide ring-1,3-dione-2-ene compounds, composition and use thereof” (WIGEN BIOMEDICINE TECHNOLOGY (SHANGHAI) CO., LTD., priority 2017, dated 2021).

Experiments:
Format in all cases: cell-based
SU-DHL6 = assay: Inhibition of tumor cell proliferation, CellTiter-Glo, SU-DHL6; details: compound concentration 50 μM, 72 hours; for cell survival rate (% of control) at 50 µM: Homo sapiens, SU-DHL-6, read-out: Inhibitory activity against proliferation (cell survival rate) SU-DHL6
Method in brief: (§1)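 Luminescent ATP read-out (CellTiter-Glo) after 72 hours gave survival relative to untreated wells, corrected for blank. Activity categories were assigned from survival at 50 μM: ≤30% high, >30-60% moderate, 60-<90% low.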

RPMI-8226 = assay: Inhibition of tumor cell proliferation, CellTiter-Glo, RPMI-8226; details: compound concentration 50 μM, 72 hours; for cell survival rate (% of control) at 50 µM: Homo sapiens, RPMI-8226, read-out: Inhibitory activity against proliferation (cell survival rate) RPMI-8226
Method in brief: as §1

K562 = assay: Inhibition of tumor cell proliferation, CellTiter-Glo, K562; details: compound concentration 50 μM, 72 hours; for cell survival rate (%) at 50 µM: Homo sapiens, K562, read-out: Inhibitory activity against proliferation (cell survival rate) K562
Method in brief: as §1

A549 = assay: Inhibition of tumor cell proliferation, CellTiter-Glo, A549; details: compound concentration 50 μM, 72 hours; for cell survival rate (% of control) at 50 µM: Homo sapiens, A549, read-out: Inhibitory activity against proliferation (cell survival rate) A549
Method in brief: as §1

MDA-MB-453 = assay: Inhibition of tumor cell proliferation, CellTiter-Glo, MDA-MB-453; details: compound concentration 50 μM, 72 hours; for cell survival rate (%) at 50 µM: Homo sapiens, MDA-MB-453, read-out: Inhibitory activity against proliferation (cell survival rate) MDA-MB-453
Method in brief: as §1

BxPC-3 = assay: Inhibition of tumor cell proliferation, CellTiter-Glo, BxPC-3; details: compound concentration 50 μM, 72 hours; for cell survival rate (%) at 50 µM: Homo sapiens, BXPC-3, read-out: Inhibitory activity against proliferation (cell survival rate) BxPC-3
Method in brief: as §1

SMILES	Inhibitory activity against proliferation (cell survival rate) SU-DHL6 (SU-DHL6)	Inhibitory activity against proliferation (cell survival rate) RPMI-8226 (RPMI-8226)	Inhibitory activity against proliferation (cell survival rate) K562 (K562)	Inhibitory activity against proliferation (cell survival rate) A549 (A549)	Inhibitory activity against proliferation (cell survival rate) MDA-MB-453 (MDA-MB-453)	Inhibitory activity against proliferation (cell survival rate) BxPC-3 (BxPC-3)	cell survival rate (% of control) at 50 µM (SU-DHL6)	cell survival rate (% of control) at 50 µM (RPMI-8226)	cell survival rate (%) at 50 µM (K562)	cell survival rate (% of control) at 50 µM (A549)	cell survival rate (%) at 50 µM (MDA-MB-453)	cell survival rate (%) at 50 µM (BxPC-3)
O=C1CCC(N2Cc3c(NC=C4C(=O)CC(c5csc6ccccc56)CC4=O)cccc3C2=O)C(=O)N1 (stereo not drawn) [Compound 37]	+++ (survival rate (%)≤30)	+ (60≤survival rate (%)<90)	+ (60≤survival rate (%)<90)	+ (60≤survival rate (%)<90)	+++ (survival rate (%)≤30)	+ (60≤survival rate (%)<90)	–	–	–	–	–	–
O=C1CCC(N2Cc3c(N/C=C4\C(=O)CC(Cc5ccccc5)C4=O)cccc3C2=O)C(=O)N1 (stereo not drawn) [Compound 121]	–	–	–	–	–	–	≤ 30%	≤ 30%	30 to 60%	60 to 90%	30 to 60%	60 to 90%
O=C1CC(c2ccccc2)CC(=O)C1=CNCCN1CCN(CCOC(=O)N2C(=O)CCC(N3C(=O)c4ccccc4C3=O)C2=O)CC1 (stereo not drawn) [Compound 103]	+++ (survival rate (%)≤30)	+ (60≤survival rate (%)<90)	+ (60≤survival rate (%)<90)	+++ (survival rate (%)≤30)	+++ (survival rate (%)≤30)	+ (60≤survival rate (%)<90)	–	–	–	–	–	–
CC(C)Cn1cccc1C1CC(=O)C(=CNc2cccc3c2CN(C2CCC(=O)NC2=O)C3=O)C(=O)C1 (stereo not drawn) [Compound 116]	+ (60≤survival rate (%)<90)	++ (30<survival rate (%)≤60)	++ (30<survival rate (%)≤60)	++ (30<survival rate (%)≤60)	++ (30<survival rate (%)≤60)	++ (30<survival rate (%)≤60)	–	–	–	–	–	–
O=C1CCC(N2Cc3c(NC(=O)CN4CCN(CCNC=C5C(=O)CC(c6ccccc6)CC5=O)CC4)cccc3C2=O)C(=O)N1 (stereo not drawn) [Compound 54]	+++ (survival rate (%)≤30)	++ (30<survival rate (%)≤60)	+++ (survival rate (%)≤30)	+++ (survival rate (%)≤30)	++ (30<survival rate (%)≤60)	+ (60≤survival rate (%)<90)	–	–	–	–	–	–
O=C1CCC(N2Cc3c(NC(=O)c4cccc(NC=C5C(=O)CC(c6ccccc6)CC5=O)c4)cccc3C2=O)C(=O)N1 (stereo not drawn) [Compound 53]	+++ (survival rate (%)≤30)	+++ (survival rate (%)≤30)	+++ (survival rate (%)≤30)	+++ (survival rate (%)≤30)	++ (30<survival rate (%)≤60)	+ (60≤survival rate (%)<90)	–	–	–	–	–	–
O=C1CCC(N2Cc3c(NC(=O)OCCNC=C4C(=O)CC(c5ccccc5)CC4=O)cccc3C2=O)C(=O)N1 (stereo not drawn) [Compound 78]	+ (60≤survival rate (%)<90)	+ (60≤survival rate (%)<90)	+++ (survival rate (%)≤30)	+++ (survival rate (%)≤30)	+++ (survival rate (%)≤30)	+ (60≤survival rate (%)<90)	–	–	–	–	–	–
O=C1CCC(N2Cc3c(NC=C4C(=O)CC(c5ccc(O)cc5)CC4=O)cccc3C2=O)C(=O)N1 (stereo not drawn) [Compound 34]	+++ (survival rate (%)≤30)	++ (30<survival rate (%)≤60)	++ (30<survival rate (%)≤60)	+ (60≤survival rate (%)<90)	+++ (survival rate (%)≤30)	+ (60≤survival rate (%)<90)	–	–	–	–	–	–
O=C1CCC(N2Cc3c(NC=C4C(=O)CC(C(=O)Nc5ccc(Cl)cc5)CC4=O)cccc3C2=O)C(=O)N1 (stereo not drawn) [Compound 135]	+++ (survival rate (%)≤30)	++ (30<survival rate (%)≤60)	++ (30<survival rate (%)≤60)	+++ (survival rate (%)≤30)	+++ (survival rate (%)≤30)	+ (60≤survival rate (%)<90)	–	–	–	–	–	–
O=C1CCC(N2Cc3c(NCCOCCOCCOCCN4CCN(CCNC=C5C(=O)CC(c6ccccc6)CC5=O)CC4)cccc3C2=O)C(=O)N1 (stereo not drawn) [Compound 133]	+ (60≤survival rate (%)<90)	+ (60≤survival rate (%)<90)	++ (30<survival rate (%)≤60)	+ (60≤survival rate (%)<90)	+ (60≤survival rate (%)<90)	++ (30<survival rate (%)≤60)	–	–	–	–	–	–
O=C1CCC(N2Cc3c(N/C=C4\C(=O)CC(c5ccccc5)NC4=O)cccc3C2=O)C(=O)N1 (stereo not drawn) [Compound 126]	–	–	–	–	–	–	60 to 90%	≤ 30%	60 to 90%	60 to 90%	60 to 90%	30 to 60%
O=C1CCC(N2Cc3c(NS(=O)(=O)N4CCN(CCNC=C5C(=O)CC(c6ccccc6)CC5=O)CC4)cccc3C2=O)C(=O)N1 (stereo not drawn) [Compound 72]	+++ (survival rate (%)≤30)	+ (60≤survival rate (%)<90)	+++ (survival rate (%)≤30)	+ (60≤survival rate (%)<90)	+ (60≤survival rate (%)<90)	+ (60≤survival rate (%)<90)	–	–	–	–	–	–
O=C1CCC(N2Cc3c(NC(=O)OCCOCCN4CCN(CCNC=C5C(=O)CC(c6ccccc6)CC5=O)CC4)cccc3C2=O)C(=O)N1 (stereo not drawn) [Compound 87]	+++ (survival rate (%)≤30)	+++ (survival rate (%)≤30)	++ (30<survival rate (%)≤60)	++ (30<survival rate (%)≤60)	+++ (survival rate (%)≤30)	+ (60≤survival rate (%)<90)	–	–	–	–	–	–
